In patent US11466012B2, “Tetrahydroisoquinoline compounds” (ALLINKY BIOPHARMA, priority 2018, dated 2022):

How the values were obtained:
Format in all cases: cell-based
[1] = system: A549 lung carcinoma cell line bearing KRas^G12S oncogenic mutation; experiment: Cell proliferation inhibition (MTS), A549; settings: Homo sapiens
Protocol: (§1) • Cell line #1: A549. Lung carcinoma cell line bearing KRas^G12S oncogenic mutation • Cell line #2: H358. non-small cell lung cancer line bearing KRas^G12C oncogenic mutation • Cell line #3: PANC-1. epithelioid carcinoma of the pancreas cell line bearing KRas^G12D oncogenic mutation • Cell line #4: RPMI. myeloma cell line bearing KRas^G12A oncogenic mutation
(§2) Cell lines were cultured in DMEM or RPMI-1640 supplemented with FBS 10%. In order to assess the antiproliferative effect of compounds, cells were seeded at a density of 1.8×10^3, 6.2×10^3, 7.8×10^3, 21×10^3 and 2×10^3 cells/cm^2, respectively, in tissue culture microplates and were incubated in humidified atmosphere at 5% CO2. 24 h later, compounds dissolved in DMSO 100% were added for different final concentrations ranging between 0.1 and 50 μM for a final DMSO concentration of 0.5% and the plates were incubated for another 72 h. After incubation, proliferation was quantified using CellTiter 96® Aqueous Non-Radioactive Cell Proliferation Assay-MTS (Promega #G5421) following manufacturer instructions. Amount of 490 nm absorbance is directly proportional to the number of living cells. Absorbance was recorded with a BMG Fluostar Optima Microplate Reader and normalized to control with vehicle.

[2] = system: RPMI-8226 myeloma cell line bearing KRas^G12A oncogenic mutation; experiment: Cell proliferation inhibition (MTS), RPMI-8226; settings: Homo sapiens
Protocol: as §1, §2

[3] = system: H358 non-small cell lung cancer line bearing KRas^G12C oncogenic mutation; experiment: Cell proliferation inhibition (MTS), H358; settings: Homo sapiens, NCI-H358
Protocol: as §1, §2

[4] = system: PANC-1 epithelioid carcinoma of the pancreas cell line bearing KRas^G12D oncogenic mutation; experiment: Cell proliferation inhibition (MTS), PANC-1; settings: Homo sapiens
Protocol: as §1, §2

[5] = compounds 54-63, based on estimations and/or preliminary experimental results
[6] = 72 h incubation, MTS, compounds 1-53, median from experimental results

Row | IC50 [1, 5] [nM] | IC50 [2, 5] [nM] | IC50 [3, 5] [nM] | IC50 [4, 5] [nM] | IC50 [1, 6] [nM] | IC50 [2, 6] [nM] | IC50 [3, 6] [nM] | IC50 [4, 6] [nM] | Compound
1 | – | – | – | – | 790 | 890 | 990 | 870 | C=CC(=O)Nc1cc2c(cc1OCCc1cccnc1)C(c1ccc(C)cc1C)N(C(=O)NCc1cocn1)CC2 (centres unmarked) [Compound 45]
2 | – | – | – | – | 740 | 610 | 910 | 880 | Cc1ccc(C2c3cc(OCCc4cccnc4)ccc3CCN2C(=O)NCc2cocn2)c(C)c1 (centres unmarked) [Compound 43]
3 | 600 | 600 | 600 | 500 | – | – | – | – | COc1cc2c(cc1OCCc1cccnc1C)C(c1ccc(C)cc1C)N(C(=O)NCc1cocn1)CC2 (centres unmarked) [Compound 58]
4 | 600 | 500 | 700 | 700 | – | – | – | – | COc1cnc(CCOc2cc3c(cc2OC)CCN(C(=O)NCc2cocn2)C3c2ccc(C)cc2C)cn1 (centres unmarked) [Compound 63]
5 | – | – | – | – | 10100 | 2670 | > 20000 | 29700 | CCC(=O)CCN1CCc2cc(OC)c(OCC(=O)c3cccc(C(=O)OC)c3)cc2C1c1ccc(C)cc1Cl (centres unmarked) [Compound 4]
6 | – | – | – | – | > 5000 | 480 | 7240 | 12000 | COc1cc2c(cc1OCCc1cccc(O)c1)C(c1ccc(C)cc1C)N(C(=O)NCc1ccncc1)CC2 (centres unmarked) [Compound 16]
7 | – | – | – | – | 8250 | 1800 | 12100 | 17300 | CCC(=O)CCN1CCc2cc(OC)c(OCc3cccc(O)c3)cc2C1c1ccc(C)cc1Cl (centres unmarked) [Compound 2]
8 | – | – | – | – | 890 | 820 | 650 | 600 | COc1cc2c(cc1OCCc1ccccc1)C(c1ccc(C)cc1C)N(C(=O)NCc1cocn1)CC2 (centres unmarked) [Compound 22]
9 | – | – | – | – | 600 | 700 | 600 | 500 | COc1cc2c(cc1OCCc1cnccn1)C(c1ccc(C)cc1C)N(C(=O)NCc1ccon1)CC2 (centres unmarked) [Compound 52]
10 | – | – | – | – | 3650 | 740 | 19000 | 24500 | CCC(=O)CCN1CCc2cc(OC)c(OCCc3cccc(O)c3)cc2C1c1ccccc1C (centres unmarked) [Compound 9]
11 | 600 | 500 | 700 | 700 | – | – | – | – | COc1cc2c(cc1OCCc1cncc(C)n1)C(c1ccc(C)cc1C)N(C(=O)NCc1cocn1)CC2 (centres unmarked) [Compound 61]
12 | – | – | – | – | 810 | 1210 | 710 | 740 | CC(=O)Nc1cc2c(cc1OCCc1cccnc1)C(c1ccc(C)cc1C)N(C(=O)NCc1cocn1)CC2 (centres unmarked) [Compound 37]
13 | – | – | – | – | 730 | 990 | 910 | 670 | Cc1ccc(C2c3cc(OCCc4cccnc4)c(NC=O)cc3CCN2C(=O)NCc2cocn2)c(C)c1 (centres unmarked) [Compound 36]
14 | – | – | – | – | 2140 | 890 | 2580 | 2130 | COc1cc2c(cc1OCCc1ccc3c(c1)CCO3)C(c1ccc(C)cc1C)N(C(=O)NCc1ccncc1)CC2 (centres unmarked) [Compound 15]
15 | – | – | – | – | 4110 | 2110 | 11200 | 11100 | CCC(=O)CCN1CCc2cc(OC)c(OCCc3cccc(O)c3)cc2C1c1ccc(OC)c(OC)c1Cl (centres unmarked) [Compound 8]
16 | – | – | – | – | 1500 | 1500 | 1200 | 1500 | COc1cc2c(cc1OCCc1cccc(NC(C)=O)c1)C(c1ccc(C)cc1C)N(C(=O)NCc1cocn1)CC2 (centres unmarked) [Compound 47]

The remaining lines, values behind:

Row | Compound | IC50 [1, 5] [nM] | IC50 [2, 5] [nM] | IC50 [3, 5] [nM] | IC50 [4, 5] [nM] | IC50 [1, 6] [nM] | IC50 [2, 6] [nM] | IC50 [3, 6] [nM] | IC50 [4, 6] [nM]
17 | COc1cc2c(cc1OCCc1nccnc1C)C(c1ccc(C)cc1C)N(C(=O)NCc1cocn1)CC2 (centres unmarked) [Compound 59] | 600 | 500 | 700 | 7000 | – | – | – | –
18 | COc1ccc(C2c3cc(OCCc4cccc(O)c4)c(OC)cc3CCN2CCC(C)=O)c(C)c1 (centres unmarked) [Compound 11] | – | – | – | – | 18000 | 1470 | 8520 | 12300
19 | Cc1ccc(C2c3cc(OCCc4cccc(O)c4)c(O)cc3CCN2C(=O)NCc2cocn2)c(C)c1 (centres unmarked) [Compound 25] | – | – | – | – | 550 | 580 | 520 | 530
20 | Cc1ccc(C2c3cc(OCCc4cccc(C(N)=O)c4)c(C(N)=O)cc3CCN2C(=O)NCc2cocn2)c(C)c1 (centres unmarked) [Compound 28] | – | – | – | – | 1560 | 1020 | 1230 | 2010
21 | COc1ccc(CCOc2cc3c(cc2OC)CCN(C(=O)NCc2cocn2)C3c2ccc(C)cc2C)cn1 (centres unmarked) [Compound 55] | 600 | 600 | 600 | 500 | – | – | – | –
22 | Cc1ccc(C2c3cc(OCCc4cccc(O)c4)c(C(=O)O)cc3CCN2C(=O)NCc2cocn2)c(C)c1 (centres unmarked) [Compound 32] | – | – | – | – | 440 | 520 | 310 | 490
23 | CC(=O)c1cc2c(cc1OCCc1cccnc1)C(c1ccc(C)cc1C)N(C(=O)NCc1cocn1)CC2 (centres unmarked) [Compound 39] | – | – | – | – | 340 | 410 | 520 | 470
24 | Cc1ccc(C2c3cc(OCCc4cccnc4)c(Cl)cc3CCN2C(=O)NCc2cocn2)c(C)c1 (centres unmarked) [Compound 38] | – | – | – | – | 430 | 220 | 1090 | 420
25 | CC(=O)Cc1cc2c(cc1OCCc1cccnc1)C(c1ccc(C)cc1C)N(C(=O)NCc1cocn1)CC2 (centres unmarked) [Compound 40] | – | – | – | – | 820 | 1330 | 960 | 810
26 | COc1cc2c(cc1OCCc1ccccn1)C(c1ccc(C)cc1C)N(C(=O)NCc1cocn1)CC2 (centres unmarked) [Compound 49] | – | – | – | – | > 1000 | > 1000 | > 1000 | > 1000
27 | COc1cc2c(cc1OCCc1cccc(O)c1)C(c1ccc(C)cc1Cl)N(C(=O)NCc1ccncc1)CC2 (centres unmarked) [Compound 13] | – | – | – | – | 9370 | 2860 | 15800 | 12600
28 | COc1cc2c(cc1OCCc1cccc(O)c1)C(c1c(C)cc(C)cc1O)N(CCC(C)=O)CC2 (centres unmarked) [Compound 10] | – | – | – | – | 15900 | 860 | 19800 | 15000
29 | COc1cc2c(cc1OCCc1cccc(C(N)=O)c1)C(c1ccc(C)cc1C)N(C(=O)NCc1cocn1)CC2 (centres unmarked) [Compound 27] | – | – | – | – | 1020 | 980 | 1120 | 1330
30 | COc1cc2c(cc1OCCc1nccnc1OC)C(c1ccc(C)cc1C)N(C(=O)NCc1cocn1)CC2 (centres unmarked) [Compound 62] | 600 | 500 | 700 | 700 | – | – | – | –
31 | COc1cc2c(cc1OCCc1cccc(OC(C)=O)c1)C(c1ccc(C)cc1C)N(C(=O)NCc1cocn1)CC2 (centres unmarked) [Compound 3] | – | – | – | – | 1970 | 1210 | 1660 | 1590
32 | COc1cc2c(cc1OCCc1cccc(O)c1)C(c1ccc(C)cc1Cl)N(C(=O)NCc1cocn1)CC2 (centres unmarked) [Compound 29] | – | – | – | – | 760 | 690 | 960 | 680
33 | COc1cc2c(cc1OCCc1cccnc1OC)C(c1ccc(C)cc1C)N(C(=O)NCc1cocn1)CC2 (centres unmarked) [Compound 56] | 600 | 600 | 600 | 500 | – | – | – | –
34 | CCC(=O)CN1CCc2cc(OC)c(OCCc3cccc(O)c3)cc2C1c1ccc(C)cc1Cl (centres unmarked) [Compound 12] | – | – | – | – | 8990 | 4980 | 16800 | 13600
35 | COc1cncc(CCOc2cc3c(cc2OC)CCN(C(=O)NCc2cocn2)C3c2ccc(C)cc2C)n1 (centres unmarked) [Compound 54] | 600 | 500 | 700 | 700 | – | – | – | –
36 | Cc1ccc(C2c3cc(OCCc4cccnc4)c(C(=O)O)cc3CCN2C(=O)NCc2cocn2)c(C)c1 (centres unmarked) [Compound 35] | – | – | – | – | 330 | 320 | 510 | 430
37 | COc1cc2c(cc1OCCc1cccc(O)c1)C(c1ccc(C)cc1C)N(C(=O)NCc1cncs1)CC2 (centres unmarked) [Compound 19] | – | – | – | – | 950 | 2930 | 680 | 570
38 | COc1cc2c(cc1OCCc1cnc(C)cn1)C(c1ccc(C)cc1C)N(C(=O)NCc1cocn1)CC2 (centres unmarked) [Compound 60] | 600 | 500 | 700 | 700 | – | – | – | –
39 | CCC(=O)CCN1CCc2cc(OC)c(OCCc3cccc(O)c3)cc2C1c1ccc(C)cc1C (centres unmarked) [Compound 7] | – | – | – | – | 6340 | 2410 | 18100 | 24800
40 | Cc1ccc(C2c3cc(OCCc4cccc(O)c4)c(C(N)=O)cc3CCN2C(=O)NCc2cocn2)c(C)c1 (centres unmarked) [Compound 24] | – | – | – | – | 740 | 870 | 840 | 660
41 | COc1cc2c(cc1OCCc1ccc3c(c1)CCC3)C(c1ccc(C)cc1C)N(C(=O)NCc1ccncc1)CC2 (centres unmarked) [Compound 14] | – | – | – | – | > 10000 | 3940 | > 10000 | > 30000
